From patent US10226452B2, “Benzoxazolone derivatives as acid ceramidase inhibitors, and their use as medicaments” (FONDAZIONE ISTITUTO ITALIANO DI TECNOLOGIA, priority 2014, dated 2019)

Legend:
SW403 cells = experiment: cells; conditions: Homo sapiens, SW-403, read-out: EC50, SW403 cell viability
From the text: Combinatory index calculation of cell viability data analyzed with CompuSyn Software. The resulting combination index (CI) offers quantitative definition for additive effect (CI=1), synergism (CI<1), and antagonism (CI>1) in drug combinations. Results are expressed as mean±s.e.m. (n=8-16) of three independent experiments.
Finally, the CellTiter-Glo® Luminescent Cell Viability Assay can be used to determine the number of viable cells in culture based on quantitation of the ATP present, which signals the presence of metabolically active cells. Briefly, a volume of CellTiter-Glo® Reagent equal to the volume of cell culture medium present in each well is added to 96-well plates after drug treatment. Contents are mixed for 2 minutes on an orbital shaker to induce cell lysis and plate was incubated at room temperature for 10 minutes to stabilize signal before reading luminescence.
The compounds were added to the cultures once every 24 hours over a period of 72 hours and the effects of the combined treatments were evaluated using CompuSyn Software.

[1] = molecular target: human (hAC) acid ceramidase (Homo sapiens (Human), UniProt Q13510); experiment: fluorescent-based in vitro assay on human acid ceramidase; type: biochemical; conditions: hAC-enriched lysosomal lysate from HEK293 cells; fluorogenic probe 5 μM; pH 4.5
From the text: To evaluate the potency of the compounds towards acid ceramidase, a fluorescence-based in vitro assay previously described in literature (Bedia C et al., ChemBioChem, 2007, 8, 642-648) was implemented and optimized. This assay is based on a “fluorogenic probe” containing a coumarin group and a sphingoid base moiety (see figure below), which is not fluorescent in itself, but upon enzymatic cleavage by acid ceramidase followed by a chemical transformation liberates the fluorescent molecule umbelliferone (7-hydroxychromen-2-one). By quantifying the generation of umbelliferone using a fluorescence plate-reader, the level of enzymatic activity can be measured, whereby IC50 values of compounds that inhibit this activity can be generated.
Lysosomal lysate, enriched with acid ceramidase, was prepared from a cell line stably expressing human acid ceramidase. In the assay, the fluorogenic probe (or substrate) serves as a ceramide-analogue, which is recognized and hydrolyzed at the amide bond by acid ceramidase from the enriched lysate to yield the fatty acid and coumarinic aminodiol. By treating the solution with sodium periodate (NaIO4), the coumarinic aminodiol is subsequently oxidized into an aldehyde intermediate, which undergoes a β-elimination reaction to release the strongly fluorescent umbelliferone.
A lysosomal human acid ceramidase protein preparation was obtained from HEK293 cells stably expressing acid ceramidase suspended in 20 mM Tris HCl (pH 7.5) with 0.32 M sucrose. The cell solution was sonicated and centrifuged at 800×g for 15 min at 4° C. Supernatants were then centrifuged at 12,000×g for 30 min at 4° C. Pellets were re-suspended in PBS pH 7.4 and subjected to two freeze-thaw cycles at −80° C. The suspension was finally centrifuged at 105,000×g for 1 hour at 4° C. and protein concentration was measured in the supernatant with bicinchinonic-acid based protein assay. This human acid ceramidase-enriched preparation allowed us to further optimize the enzymatic assay and to use smaller amounts of lysate (2 μg/well) and substrate (5 μM).
The assay was performed in Optiplate 96-wells black plates, with each reaction well containing a mixture of 25 mM sodium acetate buffer pH 4.5 and a fixed amount of protein (2 μg) in a volume of 85 μL. After 30 mins of pre-incubation with test compounds (diluted 20× from DMSO stock solutions at different concentrations), the fluorogenic probe was added (diluted 20× from EtOH stock solution, final concentration 5 μM). After incubation for 3 hours at 37° C., the reactions were stopped with 50 μL of methanol and 100 μL of a 2.5 mg/mL NalO4 fresh solution in 100 mM Glycine/NaOH pH 10.6. The plate was incubated at 37° C. for 2 hours in the dark and fluorescence intensities were measured at excitation/emission wavelengths of 360/446 nm. Negative control samples consisted of the same incubation mixture in the absence of protein extracts. The IC50 values or percent of inhibition, at the indicated concentration, of selected compounds described in the invention are reported in Table 2.

human (hAC) acid ceramidase, sequence (Q13510 22-142): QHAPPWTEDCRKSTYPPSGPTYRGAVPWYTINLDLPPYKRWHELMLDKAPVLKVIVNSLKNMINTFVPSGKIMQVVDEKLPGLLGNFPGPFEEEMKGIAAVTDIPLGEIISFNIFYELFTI
human (hAC) acid ceramidase, sequence (Q13510 143-395): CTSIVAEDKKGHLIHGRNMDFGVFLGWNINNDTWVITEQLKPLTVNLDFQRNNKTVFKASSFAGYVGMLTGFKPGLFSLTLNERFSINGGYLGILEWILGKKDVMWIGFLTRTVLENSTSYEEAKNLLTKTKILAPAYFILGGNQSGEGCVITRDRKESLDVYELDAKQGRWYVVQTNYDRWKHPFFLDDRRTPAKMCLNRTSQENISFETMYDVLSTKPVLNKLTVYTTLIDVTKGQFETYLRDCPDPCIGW

Row | EC50 (SW403 cells) | IC50 [1] | SMILES
1 | 736 nM | – | O=c1[nH]cc(F)c(=O)[nH]1 [Example 5-FU, 5-fluorouracil]
2 | – | 28 nM | Cc1ccc(CCCCNC(=O)n2c(=O)oc3ccccc32)cc1 [Example 47, 2-Oxo-N-[4-(p-tolyl)butyl]-1,3-benzoxazole-3-carboxamide]
3 | – | 84 ± 35 nM | O=C(NCCCCc1ccccc1)n1c(=O)oc2cc(-c3ccccc3)ccc21 [Example 23, 2-Oxo-6-phenyl-N-(4-phenylbutyl)-1,3-benzoxazole-3-carboxamide]
